The values that follow come from US12268694B2, “Combination pharmaceutical agents as RSV inhibitors” (Enanta Pharmaceuticals, Inc., priority 2017, dated 2025).

Molecules are shown by their SMILES.

The test system of one assay is genotype A, "Long" strain RSV. As to the kind of experiment: RSV-A assay: CPE protection in HEp-2 cells, ATPlite readout. It is filed as cell-based, human respiratory syncytial virus. The following applies: HEp-2 cells, RSV-A Long strain, ATPlite readout; read-out: Human RSV-A (“Long” strain) EC50. The text has this:
HEp-2 cells, (originally derived from tumors grown in irradiated-cortisonised weanling rats that had been injected with epidermoid carcinoma tissue from a person's larynx, but later found to be indistinguishable from HeLa cells by PCR DNA analysis), were used for the culturing of genotype A, “Long” strain RSV. Flasks were inoculated with RSV and viral stocks were collected once cytopathic effect (CPE) was greater than 90%. Viral stocks in 25% sucrose media were snap frozen using liquid nitrogen to increase viral stability. Viral stock titers were quantified by tissue culture infectious dose 50% (TCID50) using 8,000 cells per well and 3-fold viral dilutions across a 96-well plate, cultured for 4 days. Viral stock titers were also quantified by a plaque forming unit assay, as described elsewhere.
Following extensive parameter testing, the final assay is run as follows: HEp-2 cells are seeded into the inner 60 wells of a 96-well plate at 8,000 cells per well in a volume of 50 μL using Growth Media (DMEM without phenol red, 1% L-Glut, 1% Penn/Strep, 1% nonessential amino acids, 10% heat-inactivated FBS). 2-fold serial dilutions of control and test compounds are added to the wells in duplicate in a total volume of 25 μL. Viral stock is then added to the wells at a multiplicity of infection (MOI) of 0.1 in a volume of 25 μL, bringing the total volume of each well to 100 μL. The MOI is calculated using the PFU/mL, or TCID50 if unavailable. Each 96-well plate has a control column of 6 wells with cells and virus but no compound (negative control, max CPE), a column with cells but no compound or virus (positive control, minimum CPE), and a column with no cells or virus or compound (background plate/reagent control). The control wells with cells but no virus are given an additional 25 μL of growth media containing an equal quantity of sucrose as those wells receiving the viral stock in order to keep consistent in media and volume conditions. The outer wells of the plate are filled with 125 μL of moat media (DMEM, 1% Penn/Strep) to act as a thermal and evaporative moat around the test wells. Following a 5-day incubation period, the plates are read using ATPlite (50 μL added per well), which quantifies the amount of ATP (a measure of cell health) present in each well. Assay plates are read using the Envision luminometer. In parallel, cytotoxicity is examined on an additional 96-well plate treated in an identical manner, but substituting the 25 μL of viral stock for 25 μL of growth media. […] EC50 ranges are as follows: A <0.4 μM; B 0.4-0.8 μM; C >0.8 μM and CC50 ranges are as follows: A >50 μM; B 10-50 μM; C <10 μM.
(In general: Cellular ATP, detected with luciferase, serves as a proxy for viable cell number.)
As for `O=C1Nc2ccccc2C(c2ccccc2)=NC1Nc1nnc(-c2c(F)cc(F)cc2N2CCOCC2)o1` (centres unmarked) [Example 170], the concentration for a half-maximal effect (EC50) (in general, the concentration needed to bring the measured effect to its halfway point) was more than 800 nM.
The same measure, in the same setting: then `O=C1Nc2ccccc2C(c2ccccc2)=NC1Nc1nnc(-c2c(F)cc(F)cc2N2CCOCC2)o1` (centres unmarked) [Example 171], with more than 800 nM.

Still in this assay, the particulars now being: human respiratory syncytial virus, HEp-2, read-out: Human RSV-A (“Long” strain) EC50.
For the compound `N#Cc1ccc(-c2nnc(N[C@H]3N=C(c4ccccc4)c4ccccc4NC3=O)o2)c(N2CCOCC2)c1` [Example 157], the 50% effective concentration (EC50) was less than 400 nM.
Same read-out and setting: then `O=C1Nc2ccccc2C(c2ccccc2)=N[C@@H]1Nc1nnc(-c2ccc(F)cc2N2CCOCC2)o1` [Example 159], with less than 400 nM.
On to `O=C1Nc2ccccc2C(c2ccccc2)=N[C@@H]1Nc1nnc(-c2cnc(N3CCOCC3)cn2)o1` [Example 161], for which the EC50 was more than 800 nM.
Same read-out and setting: the same measure for `O=C1Nc2ccccc2C(c2ccccc2)=N[C@@H]1Nc1nnc(-c2cnc(C(F)(F)F)nc2N2CCOCC2)o1` [Example 162]: less than 400 nM; for `O=C1Nc2ccccc2C(c2ccccc2)=N[C@@H]1Nc1nnc(-c2nc3ccccn3c2N2CCOCC2)o1` [Example 163]: more than 800 nM.
In the case of `Cn1cc(N2CCOCC2)c(-c2nnc(N[C@H]3N=C(c4ccccc4)c4ccccc4NC3=O)o2)n1` [Example 164], the EC50 is less than 400 nM.
Still for that read-out and setting: then `O=C1Nc2ccccc2C(c2ccccc2)=N[C@@H]1Nc1nnc(-c2cnc(N3CCOCC3)nc2)o1` [Example 165], with 400 to 800 nM; and `O=C1Nc2ccccc2C(c2ccccc2)=N[C@@H]1Nc1nnc(-c2cnc(N3CC4CCC(C3)O4)nc2)o1` [Example 166], with more than 800 nM.
Still for that read-out and setting: then `O=C1Nc2ccccc2C(c2ccccc2)=N[C@@H]1Nc1nnc(-c2cnc(C3CC3)nc2N2CCOCC2)o1` [Example 167], with less than 400 nM; and `O=C1Nc2ccccc2C(c2ccccc2)=N[C@@H]1Nc1nnc(-c2cnc(-n3cccn3)nc2N2CCOCC2)o1` [Example 172], with more than 800 nM; and `O=C1Nc2ccccc2C(c2ccccc2)=N[C@@H]1Nc1nnc(-c2cnc(-n3cncn3)nc2N2CCOCC2)o1` [Example 173], with more than 800 nM.
On the same count and under the same terms, the same measure for `N#Cc1cnc(N2CCOCC2)c(-c2nnc(N[C@H]3N=C(c4ccccc4)c4ccccc4NC3=O)o2)c1` [Example 174]: less than 400 nM.
As to `CCc1nc(N2CCOCC2)c(-c2nnc(N[C@H]3N=C(c4ccccc4)c4ccccc4NC3=O)o2)cc1C#N` [Example 176], the EC50 is less than 400 nM.
Turning to `Cn1ncc(-c2nnc(N[C@H]3N=C(c4ccccc4)c4ccccc4NC3=O)o2)c1N1CCOCC1` [Example 177], the concentration for a half-maximal effect (EC50) was more than 800 nM.
Same read-out and setting: then `Cn1ncc(N2CCOCC2)c1-c1nnc(N[C@H]2N=C(c3ccccc3)c3ccccc3NC2=O)o1` [Example 178], with 400 to 800 nM; and `O=C1Nc2ccccc2C(c2ccccc2)=N[C@@H]1Nc1nnc(-c2sc3ncccc3c2N2CCOCC2)o1` [Example 180], with less than 400 nM; and `Cn1cc(-c2nnc(N[C@H]3N=C(c4ccccc4)c4ccccc4NC3=O)o2)c(N2CCOCC2)n1` [Example 181], with less than 400 nM.
Still for that read-out and setting: the same measure for `O=C1Nc2ccccc2C(c2ccccc2)=N[C@@H]1Nc1nnc(-c2sc(Br)cc2N2CCOCC2)o1` [Example 182]: less than 400 nM; for `N#Cc1ccc(-c2nnc(NC3N=C(c4ccccc4)c4ccccc4NC3=O)o2)s1` (centres unmarked) [Example 183]: less than 400 nM.
On the same count and under the same terms, the same measure for `O=C1Nc2ccccc2C(c2ccccc2)=NC1Nc1nnc(-c2ccc(N3CCCC3)cc2)o1` (centres unmarked) [Example 184]: 400 to 800 nM.
As to `COc1cnc(-c2nnc(NC3N=C(c4ccccc4)c4ccccc4NC3=O)o2)c(F)c1` (centres unmarked) [Example 185], the EC50 was more than 800 nM.
On the same count and under the same terms, the same measure for `Cn1nnc(-c2ccc(-c3nnc(NC4N=C(c5ccccc5)c5ccccc5NC4=O)o3)cc2)n1` (centres unmarked) [Example 186]: more than 800 nM; for `Cc1nc2ccc(-c3nnc(NC4N=C(c5ccccc5)c5ccccc5NC4=O)o3)cc2s1` (centres unmarked) [Example 187]: 400 to 800 nM; for `CC(C)c1nnc(NC2N=C(c3ccccc3)c3ccccc3NC2=O)o1` (centres unmarked) [Example 188]: more than 800 nM.
On the same count and under the same terms, the same measure for `CC(C)(C)c1nnc(NC2N=C(c3ccccc3)c3ccccc3NC2=O)o1` (centres unmarked) [Example 189]: more than 800 nM.
Turning to `CCCc1nnc(NC2N=C(c3ccccc3)c3ccccc3NC2=O)o1` (centres unmarked) [Example 190], the EC50 was more than 800 nM.
Still for that read-out and setting: then `COCc1nnc(NC2N=C(c3ccccc3)c3ccccc3NC2=O)o1` (centres unmarked) [Example 191], with more than 800 nM; and `O=C1Nc2ccccc2C(c2ccccc2)=NC1Nc1nnc(CCC(F)(F)F)o1` (centres unmarked) [Example 192], with more than 800 nM.
On the same count and under the same terms, then `N#CCCc1nnc(NC2N=C(c3ccccc3)c3ccccc3NC2=O)o1` (centres unmarked) [Example 193], with more than 800 nM.
On the same count and under the same terms, the same measure for `CS(=O)(=O)Cc1nnc(NC2N=C(c3ccccc3)c3ccccc3NC2=O)o1` (centres unmarked) [Example 194]: more than 800 nM; for `CC1(c2nnc(NC3N=C(c4ccccc4)c4ccccc4NC3=O)o2)CC1` (centres unmarked) [Example 195]: more than 800 nM; for `O=C1Nc2ccccc2C(c2ccccc2)=NC1Nc1nnc(C2CCC2)o1` (centres unmarked) [Example 196]: more than 800 nM.
As for `O=C1Nc2ccccc2C(c2ccccc2)=NC1Nc1nnc(C2CCCC2)o1` (centres unmarked) [Example 197], the half-maximal effective concentration (EC50) is more than 800 nM.
Same read-out and setting: then `O=C1Nc2ccccc2C(c2ccccc2)=NC1Nc1nnc([C@H]2CCCO2)o1` (some centres unmarked) [Example 198], with more than 800 nM; and `O=C1Nc2ccccc2C(c2ccccc2)=NC1Nc1nnc(CCc2ccccc2)o1` (centres unmarked) [Example 199], with more than 800 nM.
Turning to `Cc1nc(-c2nnc(NC3N=C(c4ccccc4)c4ccccc4NC3=O)o2)ccc1C#N` (centres unmarked) [Example 200], the EC50 fell in the range of 400 to 800 nM.
Still for that read-out and setting: the same measure for `CN1C(=O)C(Nc2nnc(-c3ccc(F)cc3)o2)N=C(c2ccccc2)c2ccccc21` (centres unmarked) [Example 201]: more than 800 nM.
Regarding `O=C1Nc2ccccc2C(c2ccccc2)=NC1Nc1nnc(-c2ccc(-n3ccc(C(F)(F)F)n3)cc2)o1` (centres unmarked) [Example 202], the half-maximal effective concentration (EC50) was more than 800 nM.
Take `O=C1Nc2ccccc2C(c2ccccc2)=NC1Nc1nnc(CC(F)(F)F)o1` (centres unmarked) [Example 203]: the EC50 was more than 800 nM.
The same measure, in the same setting: then `O=C1Nc2ccccc2C(c2ccccc2)=NC1Nc1nnc(C2(F)CC2)o1` (centres unmarked) [Example 204], with more than 800 nM; and `CC1(C)C[C@@H]1c1nnc(NC2N=C(c3ccccc3)c3ccccc3NC2=O)o1` (some centres unmarked) [Example 205], with more than 800 nM.
Still for that read-out and setting: then `CC1(C)CC(c2nnc(NC3N=C(c4ccccc4)c4ccccc4NC3=O)o2)C1` (centres unmarked) [Example 206], with more than 800 nM; and `O=C1Nc2ccccc2C(c2ccccc2)=NC1Nc1nnc([C@@H]2CCCO2)o1` (some centres unmarked) [Example 207], with more than 800 nM; and `CC(C)(Cc1ccccc1)c1nnc(NC2N=C(c3ccccc3)c3ccccc3NC2=O)o1` (centres unmarked) [Example 208], with more than 800 nM.
On the same count and under the same terms, then `CN(c1nnc(-c2ccc(F)cc2)o1)C1N=C(c2ccccc2)c2ccccc2NC1=O` (centres unmarked) [Example 209], with more than 800 nM.
`CN1CCN(c2ccc(-c3nnc(NC4N=C(c5ccccc5)c5ccccc5NC4=O)o3)cc2)CC1` (centres unmarked) [Example 210]: the EC50 was more than 800 nM.
Same read-out and setting: then `O=C1Nc2ccccc2C(c2ccccc2)=NC1Nc1nnc(-c2cccc(-n3ccnc3)c2)o1` (centres unmarked) [Example 212], with more than 800 nM; and `CC(C)(O)c1nnc(NC2N=C(c3ccccc3)c3ccccc3NC2=O)o1` (centres unmarked) [Example 213], with more than 800 nM.
On the same count and under the same terms, the same measure for `O=C1Nc2ccccc2C(c2ccccc2)=NC1Nc1nnc(C2CC(F)(F)C2)o1` (centres unmarked) [Example 214]: more than 800 nM; for `O=C1Nc2ccccc2C(c2ccccc2)=NC1Nc1nnc(C2CCOC2)o1` (centres unmarked) [Example 215]: more than 800 nM; for `O=C1Nc2ccccc2C(c2ccccc2)=NC1Nc1nnc(-c2ccc(-n3cncn3)c(F)c2)o1` (centres unmarked) [Example 216]: 400 to 800 nM.
Take `Cc1cc(-c2nnc(NC3N=C(c4ccccc4)c4ccccc4NC3=O)o2)ccc1-n1cncn1` (centres unmarked) [Example 217]: the EC50 lay in the range of 400 to 800 nM.
With `Cc1cc(-n2cncn2)ccc1-c1nnc(NC2N=C(c3ccccc3)c3ccccc3NC2=O)o1` (centres unmarked) [Example 218], the concentration giving a half-maximal response (EC50) was more than 800 nM.
For `COc1cc(-c2nnc(NC3N=C(c4ccccc4)c4ccccc4NC3=O)o2)ccc1-n1cnc(C)c1` (centres unmarked) [Example 219], the EC50 was more than 800 nM.
Consider `O=C1Nc2ccccc2C(c2ccccc2)=NC1Nc1nnc(-c2ccc(OC3CCOCC3)cc2)o1` (centres unmarked) [Example 220], for which the EC50 is more than 800 nM.
The same measure, in the same setting: the same measure for `O=C1Nc2ccccc2C(c2ccccc2)=NC1Nc1nnc(C2CC3(CCNCC3)C2)o1` (centres unmarked) [Example 222]: more than 800 nM; for `CC1(c2nnc(NC3N=C(c4ccccc4)c4ccccc4NC3=O)o2)CCNC1` (centres unmarked) [Example 223]: more than 800 nM.
